Measurements as given in ChEMBL document CHEMBL4145486, “Design, synthesis and biological evaluation of LX2343 derivatives as neuroprotective agents for the treatment of Alzheimer's disease” (Eur J Med Chem, 2018).
pEC50: −log10 of the molar value. Calls of active or inactive are those of the source. The calls are words filed in the database; no cut-off is given here.

What was measured:
SH-SY5Y = test: Neuroprotective activity against STZ induced cell death of human SH-SY5Y cells after 24 hrs by MTT assay; format: functional, cell-based
[1] = target: Amyloid-beta precursor protein (Homo sapiens) (UniProt P05067); test: Inhibition of STZ induced beta amyloid (unknown origin) deposition in HEK293 cells harboring APPSW mutant at 20 uM by ELISA; format: cell-based
[2] = target: Amyloid-beta precursor protein (Homo sapiens) (UniProt P05067); test: Inhibition of STZ induced beta amyloid clearance in human SH-SY5Y cells by ELISA; format: cell-based
[3] = target: Microtubule-associated protein tau (Homo sapiens) (UniProt P10636); test: Inhibition of STZ induced tau hyperphosphorylation at ser396 residues in human SH-SY5Y cells at 20 uM by immunohistochemical assay; format: cell-based
Mus musculus [4] = test: Antialzheimer activity in APP1/PS1 transgenic mouse assessed as decrease in prolonged path length at 30 mg/kg, ip administered 100 days prior to testing and measured at day 6 post continuous dosing by Morris water maze test; format: functional, organism-based
Mus musculus [5] = test: Antialzheimer activity in APP1/PS1 transgenic mouse assessed as decrease in escape latencies at 30 mg/kg, ip administered 100 days prior to testing and measured at day 6 post continuous dosing by Morris water maze test; format: functional, organism-based
Mus musculus [6] = test: Toxicity in APP1/PS1 transgenic mouse assessed as change in body weight at 15 to 30 mg/kg, ip administered 100 days; format: organism-based; conditions: in vivo, 2400 h
Mus musculus [7] = test: Toxicity in APP1/PS1 transgenic mouse assessed as effect on liver function at 15 to 30 mg/kg, ip administered 100 days; format: organism-based; conditions: in vivo, 2400 h
Mus musculus [8] = test: Toxicity in APP1/PS1 transgenic mouse assessed as change in swimming speed at 15 to 30 mg/kg, ip administered 100 days; format: organism-based; conditions: in vivo, 2400 h

Sequence of Amyloid-beta precursor protein (Homo sapiens) (P05067 whole entry): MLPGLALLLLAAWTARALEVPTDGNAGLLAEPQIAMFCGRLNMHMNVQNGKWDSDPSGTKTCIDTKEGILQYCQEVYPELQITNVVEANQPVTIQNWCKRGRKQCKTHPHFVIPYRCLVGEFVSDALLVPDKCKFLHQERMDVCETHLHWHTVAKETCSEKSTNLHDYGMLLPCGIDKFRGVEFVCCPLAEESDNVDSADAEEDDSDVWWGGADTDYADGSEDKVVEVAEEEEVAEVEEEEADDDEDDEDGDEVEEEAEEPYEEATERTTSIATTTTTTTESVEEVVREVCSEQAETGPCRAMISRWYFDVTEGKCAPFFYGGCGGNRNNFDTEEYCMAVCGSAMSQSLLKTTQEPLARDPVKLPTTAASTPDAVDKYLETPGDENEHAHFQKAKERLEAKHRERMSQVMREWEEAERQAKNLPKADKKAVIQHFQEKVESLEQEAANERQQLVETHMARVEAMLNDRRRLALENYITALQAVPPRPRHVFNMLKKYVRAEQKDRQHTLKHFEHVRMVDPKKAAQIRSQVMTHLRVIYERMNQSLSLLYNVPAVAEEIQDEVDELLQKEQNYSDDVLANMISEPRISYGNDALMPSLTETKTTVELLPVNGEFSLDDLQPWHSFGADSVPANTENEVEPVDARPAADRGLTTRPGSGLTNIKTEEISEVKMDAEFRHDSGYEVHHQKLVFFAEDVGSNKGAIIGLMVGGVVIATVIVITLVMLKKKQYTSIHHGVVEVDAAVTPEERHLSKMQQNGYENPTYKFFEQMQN
Sequence of Microtubule-associated protein tau (Homo sapiens) (P10636 whole entry): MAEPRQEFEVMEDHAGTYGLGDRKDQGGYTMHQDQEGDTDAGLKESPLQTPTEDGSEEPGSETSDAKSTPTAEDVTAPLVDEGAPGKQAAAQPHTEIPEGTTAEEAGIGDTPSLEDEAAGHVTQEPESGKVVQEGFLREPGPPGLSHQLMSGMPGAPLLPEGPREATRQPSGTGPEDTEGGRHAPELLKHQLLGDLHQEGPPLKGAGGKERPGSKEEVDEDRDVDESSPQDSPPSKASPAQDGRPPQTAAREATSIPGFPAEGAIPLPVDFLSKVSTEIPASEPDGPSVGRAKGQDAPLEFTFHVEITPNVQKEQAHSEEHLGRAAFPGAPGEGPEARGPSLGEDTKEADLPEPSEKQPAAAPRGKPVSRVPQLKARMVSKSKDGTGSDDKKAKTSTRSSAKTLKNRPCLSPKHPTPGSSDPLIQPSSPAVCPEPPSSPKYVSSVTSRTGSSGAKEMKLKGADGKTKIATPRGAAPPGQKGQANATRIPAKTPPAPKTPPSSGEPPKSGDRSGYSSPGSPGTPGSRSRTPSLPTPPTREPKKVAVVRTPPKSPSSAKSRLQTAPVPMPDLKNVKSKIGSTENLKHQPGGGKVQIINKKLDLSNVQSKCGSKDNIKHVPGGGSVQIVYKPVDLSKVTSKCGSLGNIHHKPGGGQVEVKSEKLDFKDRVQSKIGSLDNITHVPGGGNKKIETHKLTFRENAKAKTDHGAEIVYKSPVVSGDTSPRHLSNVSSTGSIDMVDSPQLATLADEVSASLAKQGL

Compound	pEC50 (SH-SY5Y)	further results
COc1ccc(Cl)cc1N(CC(=O)NC1CCCCC1)S(=O)(=O)c1ccccc1	4.76	
COc1ccc(Cl)cc1N(CC(=O)Nc1cccc2ccccc12)S(=O)(=O)c1ccccc1	4.76	
COc1ccc(Cl)cc1N(CC(=O)Nc1ccc2c(c1)c1ccccc1n2C)S(=O)(=O)c1ccccc1	5.88	
CC12CC3CC(C)(C1)CC(NC(=O)CN(c1ccc(Cl)cc1)S(=O)(=O)c1ccccc1)(C3)C2	< 4.70	
COc1ccc(CNC(=O)CN(c2cc(Cl)ccc2OC)S(=O)(=O)c2ccccc2)cc1	< 4.70	
CCn1ccc2cc(NC(=O)CN(c3cc(Cl)ccc3OC)S(=O)(=O)c3ccccc3)ccc21	5.65	
CCn1c2ccccc2c2cc(NC(=O)CN(c3cc(Cl)ccc3OC)S(=O)(=O)c3ccccc3)ccc21	6.60	inhibition [1]: Active; inhibition [2]: Active
COc1ccc(NC(=O)CN(c2cc(Cl)ccc2OC)S(=O)(=O)c2ccccc2)cc1OC	< 4.70	
CC12CC3CC(C)(C1)CC(NC(=O)CN(c1ccccc1Cl)S(=O)(=O)c1ccccc1)(C3)C2	4.79	
CC12CC3CC(C)(C1)CC(NC(=O)CN(C1CCCCC1)S(=O)(=O)c1ccccc1)(C3)C2	< 4.70	
COc1ccccc1NC(=O)CN(c1cc(Cl)ccc1OC)S(=O)(=O)c1ccccc1	4.81	
COc1cccc(NC(=O)CN(c2cc(Cl)ccc2OC)S(=O)(=O)c2ccccc2)c1	4.75	
COc1ccc(Cl)cc1N(CC(=O)NC12CC3CC(C)(CC(C)(C3)C1)C2)S(=O)(=O)c1ccc([N+](=O)[O-])cc1	< 4.70	
COc1ccc(Cl)cc1N(CC(=O)Nc1ccc([N+](=O)[O-])cc1)S(=O)(=O)c1ccccc1	5.09	
Cc1ccc(N(CC(=O)NC23CC4CC(C)(CC(C)(C4)C2)C3)S(=O)(=O)c2ccccc2)cc1Cl	5.05	
COc1ccc(Cl)cc1N(CC(=O)N1CCc2ccccc21)S(=O)(=O)c1ccccc1	< 4.70	
CCCNC(=O)CN(c1cc(Cl)ccc1OC)S(=O)(=O)c1ccccc1	< 4.70	
Cc1c(Cl)cccc1N(CC(=O)NC12CC3CC(C)(CC(C)(C3)C1)C2)S(=O)(=O)c1ccccc1	< 4.70	

Compound	pEC50 (SH-SY5Y)	further results
COc1ccc(Cl)cc1N(CC(=O)Nc1ccc2[nH]c3ccccc3c2c1)S(=O)(=O)c1ccccc1	5.56	
COc1ccc(Cl)cc1N(CC(=O)N(C1CCCCC1)C1CCCCC1)S(=O)(=O)c1ccccc1	4.85	
CC12CC3CC(C)(C1)CC(NC(=O)CN(c1ccccc1)S(=O)(=O)c1ccccc1)(C3)C2	< 4.70	
COc1ccc(Cl)cc1N(CC(=O)NC12CC3CC(C)(CC(C)(C3)C1)C2)C(=O)c1ccccc1	< 4.70	
COc1ccc(Cl)cc1N(CC(=O)Nc1ccc(C(F)(F)F)cc1)S(=O)(=O)c1ccccc1	5.43	inhibition [1]: Active; inhibition [3]: Active; inhibition [2]: Active
COc1ccc(Cl)cc1N(CC(=O)NC12CC3CC(C)(CC(C)(C3)C1)C2)S(=O)(=O)c1ccc(Cl)cc1	< 4.70	
COc1ccc(Cl)cc1N(CC(=O)Nc1ccc(Cl)cc1)S(=O)(=O)c1ccccc1	< 4.70	
COc1ccc(Cl)cc1NC(=O)CN(c1cc(Cl)ccc1OC)S(=O)(=O)c1ccccc1	< 4.70	
CCN(CC)C(=O)CN(c1cc(Cl)ccc1OC)S(=O)(=O)c1ccccc1	< 4.70	
COc1ccc(Cl)cc1N(CC(=O)Nc1ccccc1)S(=O)(=O)c1ccccc1	< 4.70	
COc1ccc(Cl)cc1N(CC(=O)Nc1cccc2c1[nH]c1ccccc12)S(=O)(=O)c1ccccc1	5.18	
COc1ccc(Cl)cc1N(CC(=O)Nc1cccc2c3ccccc3n(C)c12)S(=O)(=O)c1ccccc1	5.50	inhibition [1]: Active; inhibition [2]: Active
COc1ccc(NC(=O)CN(c2cc(Cl)ccc2OC)S(=O)(=O)c2ccccc2)cc1	4.79	
COc1ccc(Cl)cc1N(CC(=O)NC12CC3CC(C)(CC(C)(C3)C1)C2)S(=O)(=O)c1ccccc1	6.66	inhibition [1]: Active; inhibition [3]: Active; inhibition [2]: Active; Activity (Mus musculus [4]): Active; Activity (Mus musculus [5]): Active; Activity (Mus musculus [6]): Non-Toxic; Activity (Mus musculus [7]): Non-Toxic; Activity (Mus musculus [8]): Non-Toxic
COc1ccc(Cl)cc1N(CC(=O)NC12CC3CC(C)(CC(C)(C3)C1)C2)S(=O)(=O)c1ccc(C)cc1	< 4.70	
CC12CC3CC(C)(C1)CC(NC(=O)CN(c1cccc(Cl)c1)S(=O)(=O)c1ccccc1)(C3)C2	4.91	
COc1ccc(Cl)cc1N(CC(=O)N1CCCCC1)S(=O)(=O)c1ccccc1	4.84	inhibition [1]: Active
